Experimental data reported in US20110086759A1, “CHEMICAL COMPOUNDS” (SYNGENTA CROP PROTECTION, INC., priority 2007, published 2011).

Assays:
Assay type in all cases: in vivo
Setaria faberi (SETFA) [1] = assay: Post-emergence biological efficacy, glasshouse pot test; conditions: 312 h, post-emergence, 1,000 g/ha, evaluated after 13 days (100=total damage; 0=no damage), read-out: Percentage damage caused to weed species, SETFA
Summary of the method: (§1)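 Pot-grown weeds were sprayed 8 days after sowing with test compound in acetone/water (50:50) with 0.5% Tween 20 at 1000 or 250 g/ha. Glasshouse at 24/16° C day/night, 14 h light, 65% humidity. Damage scored 0-100 (100 = total damage) after 13 days.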

[2] = system: Alopecurus myosuroides (ALOMY); assay: as above; conditions: 312 h, post-emergence, 1,000 g/ha, evaluated after 13 days (100=total damage; 0=no damage), read-out: Percentage damage caused to weed species, ALOMY
Summary of the method: as §1

[3] = system: Echinochloa crus-galli (ECHCG); assay: as above; conditions: 312 h, post-emergence, 1,000 g/ha, evaluated after 13 days (100=total damage; 0=no damage), read-out: Percentage damage caused to weed species, ECHCG
Summary of the method: as §1

[4] = system: Amaranthus retoflexus (AMARE); assay: as above; conditions: Amaranthus retroflexus, 312 h; post-emergence, 1,000 g/ha, evaluated after 13 days (100=total damage; 0=no damage); read-out: Percentage damage caused to weed species, AMARE
Summary of the method: as §1

Solanum nigrum (SOLNI) [5] = assay: as above; conditions: 312 h, post-emergence, 1,000 g/ha, evaluated after 13 days (100=total damage; 0=no damage), read-out: Percentage damage caused to weed species, SOLNI
Summary of the method: as §1

[6] = system: Ipomea hederaceae (IPOHE); assay: as above; conditions: Ipomoea hederacea, 312 h; post-emergence, 1,000 g/ha, evaluated after 13 days (100=total damage; 0=no damage); read-out: Percentage damage caused to weed species, IPOHE
Summary of the method: as §1

Setaria faberi (SETFA) [7] = assay: Pre-emergence biological efficacy, glasshouse pot test; conditions: 312 h, pre-emergence, 1,000 g/ha, evaluated after 13 days (100=total damage; 0=no damage), read-out: Percentage damage SETFA
Summary of the method: (§2)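 Glasshouse pot test: spray on soil one day after sowing, 1000 or 250 g/ha. Conditions 24/16 °C day/night, 14 h light, 65% humidity. Plant damage scored 0–100 at 13 days.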

[8] = system: Alopecurus myosuroides (ALOMY); assay: as above; conditions: 312 h, pre-emergence, 1,000 g/ha, evaluated after 13 days (100=total damage; 0=no damage), read-out: Percentage damage ALOMY
Summary of the method: as §2

[9] = system: Echinochloa crus-galli (ECHCG); assay: as above; conditions: 312 h, pre-emergence, 1,000 g/ha, evaluated after 13 days (100=total damage; 0=no damage), read-out: Percentage damage ECHCG
Summary of the method: as §2

[10] = system: Amaranthus retoflexus (AMARE); assay: as above; conditions: Amaranthus retroflexus, 312 h; pre-emergence, 1,000 g/ha, evaluated after 13 days (100=total damage; 0=no damage); read-out: Percentage damage AMARE
Summary of the method: as §2

Solanum nigrum (SOLNI) [11] = assay: as above; conditions: 312 h, pre-emergence, 1,000 g/ha, evaluated after 13 days (100=total damage; 0=no damage), read-out: Percentage damage SOLNI
Summary of the method: as §2

[12] = system: Ipomea hederaceae (IPOHE); assay: as above; conditions: Ipomoea hederacea, 312 h; pre-emergence, 1,000 g/ha, evaluated after 13 days (100=total damage; 0=no damage); read-out: Percentage damage IPOHE
Summary of the method: as §2

Row | SMILES | pest or weed control at 1000 g/ha (Setaria faberi (SETFA) [1]) | pest or weed control at 1000 g/ha [2] | pest or weed control at 1000 g/ha [3] | pest or weed control at 1000 g/ha [4] | pest or weed control at 1000 g/ha (Solanum nigrum (SOLNI) [5]) | pest or weed control at 1000 g/ha [6] | pest or weed control at 1000 g/ha (Setaria faberi (SETFA) [7]) | pest or weed control at 1000 g/ha [8] | pest or weed control at 1000 g/ha [9] | pest or weed control at 1000 g/ha [10] | pest or weed control at 1000 g/ha (Solanum nigrum (SOLNI) [11]) | pest or weed control at 1000 g/ha [12]
1 | O=C(O)c1nc(C2CC2)nc(NC2CC2)c1Cl [Compound 1-1, 5-Chloro-2-cyclopropyl-4-cyclopropylamino-pyrimidine-6-carboxylic acid] | 80% | 40% | 40% | 100% | 90% | 80% | 0% | 20% | 20% | 100% | 90% | 90%
2 | O=C(O)c1nc(C2CC2)nc(NC2CCCC2)c1Cl [Compound 1-33, 5-Chloro-2-cyclopropyl-4-cyclopentylamino-pyrimidine-6-carboxylic acid] | 80% | 30% | 20% | 100% | 80% | 70% | 50% | 30% | 30% | 80% | 80% | 70%
3 | O=C(O)c1nc(C2CC2)nc(NC2CCCCC2)c1Cl [Compound 1-35, 5-Chloro-4-cyclohexylamino-2-cyclopropyl-pyrimidine-6-carboxylic acid] | 0% | 10% | 10% | 50% | 30% | 50% | 0% | 10% | 10% | 50% | 20% | 0%
4 | O=C(O)c1nc(C2CC2)nc(NCc2ccccc2)c1Cl [Compound 1-60, 5-Chloro-2-cyclopropyl-4-phenylmethyamino pyrimidtne-6-carboxylic acid] | 90% | 50% | 70% | 100% | 90% | 100% | 0% | 20% | 20% | 90% | 90% | 100%
5 | O=C(O)c1nc(C2CC2)nc(NCc2ccc(F)cc2)c1Cl [Compound 1-66, 5-Chloro-2-cyclopropyl-4-(4-fluorophenylmethyl-amino)pyrimidine-6-carboxylic acid] | 80% | 10% | 50% | 100% | 90% | 80% | 10% | 10% | 10% | 50% | 60% | 90%
6 | Cc1ccc(CNc2nc(C3CC3)nc(C(=O)O)c2Cl)cc1 [Compound 1-73, 5-Chloro-2-cyclo-propyl-4-(4-methyl-phenylmethyl-amino)pyrimidine-6-carboxylic acid] | 50% | 10% | 30% | 100% | 80% | 80% | 30% | 10% | 10% | 70% | 80% | 60%
7 | O=C(O)c1nc(C2CC2)nc(NCc2c(Cl)cccc2Cl)c1Cl [Compound 1-104, 5-Chloro-2-cyclopropyl-4-(2,6-dichlorophenyl-methylamino)-pyrimidine-6-carboxylic acid] | 0% | 0% | 0% | 60% | 50% | 60% | 0% | 0% | 0% | 0% | 0% | 0%
8 | COc1ccc(CNc2nc(C3CC3)nc(C(=O)O)c2Cl)c(OC)c1 [Compound 1-110, 5-Chloro-2-cyclopropyl-4-(2,4-dimethoxyphenyl-methylamino)-pyrimidine-6-carboxylic acid] | 80% | 30% | 50% | 100% | 80% | 80% | 30% | 40% | 20% | 100% | 60% | 90%
9 | Cc1ccc(CNc2nc(C3CC3)nc(C(=O)O)c2Cl)o1 [Compound 1-135, 5-Chloro-2-cyclopropyl-4-(5-methylfuran-2-ylmethylamino)-pyrimidine-6-carboxylic acid] | 80% | 80% | 70% | 100% | 100% | 100% | 90% | 80% | 90% | 100% | 100% | 100%
10 | Cc1cccnc1CNc1nc(C2CC2)nc(C(=O)O)c1Cl [Compound 1-153, 5-Chloro-2-cyclopropyl-4-(3-methylpyridin-2-ylmethylamino)-pyrimidine-6-carboxylic acid] | 90% | 50% | 60% | 100% | 90% | 70% | 70% | 40% | 50% | 100% | 90% | 100%
11 | CC(Nc1nc(C2CC2)nc(C(=O)O)c1Cl)c1ccc(Cl)cc1 (stereo not drawn) [Compound 1-176, 5-Chloro-4-[1-(4-chlorophenyl)ethyl-amino]-2-cyclopropyl-pyrimidine-6-carboxylic acid] | 20% | 10% | 10% | 40% | 60% | 40% | 0% | 0% | 0% | 0% | 0% | 0%
12 | COC(=O)c1nc(C2CC2)nc(NC2CC2)c1Cl [Compound 4-1, 5-Chloro-2-cyclopropyl-4-cyclopropylamino-6-methoxycarbonyl-pyrimidine] | 80% | 60% | 60% | 100% | 100% | 90% | 60% | 40% | 50% | 100% | 100% | 90%
